From patent US20210196681A1, “SELECTIVE PRESENILIN-2 GAMMA-SECRETASE INHIBITORS” (UNIVERSITEIT MAASTRICHT, priority 2018, published 2021)

Assays:
[1] = system: oncogenic mutant Notch1 (ΔEGF-Notch1-L1594P-MYC) activity
[2] = target: T1, Presenilin 2 (Psen2) (Homo sapiens, UniProt P49810); assay: Presenilin specific luciferase/cleavage reporter assay in PS1/2 DKO mEF reconstituted with Presenilin 2; type: cell-based; conditions: Psen2 reconstituted cells, compared to cleavage inhibition of the same compound for Psen1; FIG. 4
T1 construct: expressed in transfected cells; host or cells: PS1/2 DKO mouse embryonic fibroblasts (mEF) reconstituted with Presenilin 2
T1 sequence (P49810 1-297 limits assumed): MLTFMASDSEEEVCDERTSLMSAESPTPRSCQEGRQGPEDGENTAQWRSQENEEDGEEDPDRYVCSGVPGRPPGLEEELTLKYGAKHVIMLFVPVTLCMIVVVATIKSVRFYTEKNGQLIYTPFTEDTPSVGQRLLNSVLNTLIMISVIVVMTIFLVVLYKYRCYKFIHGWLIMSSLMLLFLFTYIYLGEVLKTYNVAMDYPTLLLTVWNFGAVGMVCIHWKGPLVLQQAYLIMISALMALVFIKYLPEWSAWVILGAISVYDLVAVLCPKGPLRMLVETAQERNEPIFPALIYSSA
T1 sequence (P49810 298-448 limits assumed): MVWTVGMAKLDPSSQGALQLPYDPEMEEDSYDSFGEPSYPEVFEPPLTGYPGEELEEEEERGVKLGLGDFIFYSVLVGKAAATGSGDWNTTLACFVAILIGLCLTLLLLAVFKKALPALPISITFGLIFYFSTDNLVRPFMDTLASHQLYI
T1 sequence (P57716 34-708 partner limits assumed): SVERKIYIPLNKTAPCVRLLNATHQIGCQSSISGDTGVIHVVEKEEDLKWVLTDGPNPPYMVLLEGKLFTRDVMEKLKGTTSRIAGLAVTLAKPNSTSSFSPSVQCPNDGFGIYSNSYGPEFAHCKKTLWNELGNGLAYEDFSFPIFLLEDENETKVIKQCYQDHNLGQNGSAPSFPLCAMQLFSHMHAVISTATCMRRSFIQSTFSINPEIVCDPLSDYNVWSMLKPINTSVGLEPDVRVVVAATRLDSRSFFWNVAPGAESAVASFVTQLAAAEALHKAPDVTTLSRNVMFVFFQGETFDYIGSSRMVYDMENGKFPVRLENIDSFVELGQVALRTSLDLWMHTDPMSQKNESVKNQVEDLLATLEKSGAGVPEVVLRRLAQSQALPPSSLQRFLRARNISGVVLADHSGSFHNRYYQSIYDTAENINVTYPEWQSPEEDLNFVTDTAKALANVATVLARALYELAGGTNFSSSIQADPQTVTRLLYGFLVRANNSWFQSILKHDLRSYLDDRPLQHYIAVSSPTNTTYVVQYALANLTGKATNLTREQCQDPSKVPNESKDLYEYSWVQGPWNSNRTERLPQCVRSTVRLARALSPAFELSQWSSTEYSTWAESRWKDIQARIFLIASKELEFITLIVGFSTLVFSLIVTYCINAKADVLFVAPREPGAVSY
T1 sequence (Q8BVF7 whole entry partner): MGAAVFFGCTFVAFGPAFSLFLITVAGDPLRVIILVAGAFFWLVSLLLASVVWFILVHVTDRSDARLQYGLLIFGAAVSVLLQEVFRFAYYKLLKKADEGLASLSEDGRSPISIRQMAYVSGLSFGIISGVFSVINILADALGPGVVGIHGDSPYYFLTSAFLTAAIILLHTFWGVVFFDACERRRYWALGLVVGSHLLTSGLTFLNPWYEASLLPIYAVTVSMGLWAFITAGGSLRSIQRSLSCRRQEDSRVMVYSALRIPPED
T1 sequence (Q9CQR7 whole entry partner): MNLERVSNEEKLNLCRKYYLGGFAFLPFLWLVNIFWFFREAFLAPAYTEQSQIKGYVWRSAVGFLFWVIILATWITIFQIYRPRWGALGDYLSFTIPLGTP
Procedure: Immunoblot on cell lysates of PS1/2 DKO cells, and PS1/2 DKO reconstituted with either Presenilin 1 or Presenilin 2 were provided. Blots were probed with antibodies for nicastrin, Presenilin 1 (C-terminal fragment), Presenilin 2 (C-terminal fragment), and β-actin (loading control) to verify the cell construct used for later experiments. Double knock out of PSEN1 and PSEN2 and reconstitution were successful.
Cells were plated 24 hours prior to transfection in 6 wells plates (200.000 cells/well in 2 mL). Cells were transfected using linear polyethylenimin (P-PEI) and DMEM/f12. 2.3 μg Firefly luciferase reporter plasmids containing synthetic Gal4-binding sites (5xUAS FR-luc) were used per 6 well, as well as 150 ng herpes thymidine kinase-driven Renilla luciferase (here serving as a housekeeping gene, and thus normalizing yardstick) and 50 ng Histone-2B (H2B)-GFP (here serving as a control for transfection success). […] 24 h after transfection, […] were washed with PBS, lysed and measured following manufacturer's directions for the Dual Luciferase Reporter (DLRTM) Assay system (Promega, The Netherlands). Analysis was carried out using the FLUOstar microplate reader (BMG Labtech, Germany). […]

| Cleavage inhibition (Psen2 specificity) [2] | Compound | Inhibition of mutant Notch1 transcriptional activity by CQ [1] |
| --- | --- | --- |
|  | CCN(CC)CCCC(C)Nc1ccnc2cc(Cl)ccc12 (centres unmarked) [CQ, Chloroquine] | most strongly inhibited |
| high percentage of cleavage inhibition | CCC[C@H](NC(=O)[C@@H](O)c1cc(F)cc(F)c1)C(=O)Nc1cn(C(C)(C)CN(C)C)cn1 [SN262, (S)-2-((S)-2-(3,5-difluorophenyl)-2-hydroxyacetamido)-N-(1-(1-(dimethylamino)-2-methylpropan-2-yl)-1H-imidazol-4-yl)pentanamide] |  |
